Assay results from US20140242609A1, “Diagnosis and treatment of kidney stones, methods and compositions therefor” (Washington University, priority 2013, published 2014).

Assays:
Assay type in all cases: in vivo, mouse
[1] = 24 hr urinalysis in metabolic cages, plasma and urine electrolytes
Experimental: Age (9-10 weeks old) and sex (male) matched wild-type and CLDN14 KO mice were housed individually in metabolic cages (Harvard Apparatus) with free access to water and food for 24 hr. Urine was collected under mineral oil. The plasma and urine Ca^++ and Mg^2+ levels were determined with atomic flame absorption spectrophotometer (PerkinElmer). The plasma (P) and urine (U) electrolyte levels were determined with the Roche Cobas clinical analyzer (Roche Diagnostics). […] The fractional excretion of electrolytes was calculated using the following equation: FEion=V×Uion/(GFR×Pion), where GFR was calculated according to the clearance rate of creatinine (GFR=V×Ucreatinine/Pcreatinine).
(§1) Mice were housed individually in metabolic cages (Harvard Apparatus) with free access to water and food for 24 hr. Urine was collected under mineral oil. The plasma and urine Ca^++ and Mg^++ levels were determined with atomic flame absorption spectrophotometer (PerkinElmer). The creatinine levels were measured with an enzymatic method that was independent of plasma chromogens.

[2] = circulating hormonal levels in SAHA treated mice (ELISA); conditions: SAHA treatments versus vehicle
Experimental: FIG. 24 illustrates circulating hormonal levels in SAHA versus vehicle treated mouse kidneys. Serum PTH (A), 1,25-(OH)2-vitD3 (B) and FGF23 (C) levels were measured with ELISA and shown as mean±SEM, n=5.

[3] = urinary Ca++ and Mg++ levels (ratios to creatinine) in spot urine collections; conditions: 5 mg/kg BW−1
Experimental: as §1, with “chromogens. (Gong Y, et al., 2013) The fractional excretion of electrolytes was calculated using the following equation FEion=V×Uion/(GFR×Pion), where GFR was calculated according to the clearance rate of creatinine (GFR=V×Ucreatinine/Pcreatinine).” for “chromogens.”
In these experiments, the inventors gave wild-type C57BL/6 mice SAHA treatments at 5 mg/kg BW^−1 and traced urinary Ca^++ and Mg^++ levels (as ratios to creatinine) from 4 hr to 12 hr in spot urine collections. Consistent with the downregulation of CLDN14 gene expression at 4 hrs, the urinary excretion of Ca^++ and Mg^++ was reduced by 47% and 40% respectively (p<0.01, n=5 versus vehicle, FIG. 19A-B).

[4] = WT pre-treated with furosemide 40 mg/kg BW−1 per day, Veh + Furo = furosemide alone

With `O=C(CCCCCCC(=O)Nc1ccccc1)NO` [SAHA, Suberanilohydroxamic acid] the ECa ([1]; CLDN14 KO, same SAHA regimen) was 1.20 ± 0.24 ug/24 hr · g, the EMg ([1]; CLDN14 KO, same SAHA regimen) was 6.50 ± 0.55 ug/24 hr · g and the FECa ([1]; CLDN14 KO, same SAHA regimen) was 0.45 ± 0.07%. It also gave an FEMg ([1]; CLDN14 KO, same SAHA regimen) of 9.90 ± 0.83%, a PCa ([1]; CLDN14 KO, same SAHA regimen) of 11.13 ± 0.34 mg/dL and a PMg ([1]; CLDN14 KO, same SAHA regimen) of 2.76 ± 0.05 mg/dL. The ECa [1, 4] was 3.37 ± 0.75 ug/24 hr · g, the EMg [1, 4] was 8.34 ± 2.15 ug/24 hr · g and the FECa [1, 4] was 1.97 ± 0.38%. It also gave an FEMg [1, 4] of 22.50 ± 6.40%, a PCa [1, 4] of 9.95 ± 0.41 mg/dL and a PMg [1, 4] of 2.20 ± 0.06 mg/dL. The ECa ([1]; WT, SAHA 10 mg/kg BW−1 per day) was 0.72 ± 0.26^□ ug/24 hr · g, the EMg ([1]; WT, SAHA 10 mg/kg BW−1 per day) was 3.16 ± 0.80^□□ ug/24 hr · g and the FECa ([1]; WT, SAHA 10 mg/kg BW−1 per day) was 0.27 ± 0.08^□□ %. The FEMg ([1]; WT, SAHA 10 mg/kg BW−1 per day) was 6.06 ± 1.71^□□ %, the PCa ([1]; WT, SAHA 10 mg/kg BW−1 per day) was 11.38 ± 0.44^□ mg/dL and the PMg ([1]; WT, SAHA 10 mg/kg BW−1 per day) was 2.71 ± 0.12^□ mg/dL. For the same molecule, the “effect of chronic treatment on calcemia” value ([1]; chronic SAHA treatment) was “mild hypercalcemia”, the “circulating 1,25-(OH)2-vitD3 levels” value [2] was “None of these hormones changed” and the “circulating FGF23 levels” value [2] was “None of these hormones changed”. The “circulating PTH levels” value [2] was “None of these hormones changed”, the “urinary excretion of Ca++, reduction” value ([3]; 4 hrs, versus vehicle) was 47% and the “urinary excretion of Mg++, reduction” value ([3]; 4 hrs, versus vehicle) was 40%. The “effects on urinary Ca++ and Mg++ levels” value ([3]; after 12 hrs) was “completely lost”, the “urinary Ca++ excretion” value ([3]; by 8 hrs) was “hypocalciuria was pronounced” and the urinary magnesium excretion ([3]; by 8 hrs) was “recovered to the vehicle level”.
